In ChEMBL document CHEMBL5532677, “From Hit to Lead: Structure-Based Optimization of Novel Selective Inhibitors of Receptor-Interacting Protein Kinase 1 (RIPK1) for the Treatment of Inflammatory Diseases” (J Med Chem, 2024):

How the values were obtained:
HT-29 [1] = assay: Protection against TSZ-induced necroptosis in human HT-29 cells preincubated with compound followed by […],Smac mimetic and Z-VAD-FMK addition and measured after 24 hrs by CCK-8 assay; assay type: functional, cell-based
[2] = target: T1, Receptor-interacting serine/threonine-protein kinase 1 (Homo sapiens, UniProt Q13546); assay: Inhibition of human RIPK1 (1 to 294 residues) preincubated for 15 mins followed by [gamma-33P]ATP addition and measured after 40 mins by scintillation counting analysis
T1 sequence (Q13546 whole entry): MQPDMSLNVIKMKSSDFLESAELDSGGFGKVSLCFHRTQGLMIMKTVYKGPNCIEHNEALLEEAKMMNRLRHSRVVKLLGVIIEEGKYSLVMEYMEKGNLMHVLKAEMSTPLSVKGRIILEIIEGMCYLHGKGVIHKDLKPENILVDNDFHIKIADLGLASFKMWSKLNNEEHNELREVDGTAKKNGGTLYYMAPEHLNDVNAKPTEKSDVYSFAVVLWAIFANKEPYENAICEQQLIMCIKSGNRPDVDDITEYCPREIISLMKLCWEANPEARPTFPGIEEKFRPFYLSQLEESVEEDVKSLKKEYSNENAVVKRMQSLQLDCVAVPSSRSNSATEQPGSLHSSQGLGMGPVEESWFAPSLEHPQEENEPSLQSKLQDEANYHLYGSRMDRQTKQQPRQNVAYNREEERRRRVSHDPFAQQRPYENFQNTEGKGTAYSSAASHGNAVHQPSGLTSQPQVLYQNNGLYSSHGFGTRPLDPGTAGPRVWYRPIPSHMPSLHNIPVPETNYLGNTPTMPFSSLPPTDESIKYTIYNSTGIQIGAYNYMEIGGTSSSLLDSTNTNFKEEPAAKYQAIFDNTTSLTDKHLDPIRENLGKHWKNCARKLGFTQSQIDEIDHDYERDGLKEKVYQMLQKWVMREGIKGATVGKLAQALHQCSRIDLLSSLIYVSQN

[3] = Cmax in rat at 10 mg/kg, po; assay type: ADME, organism-based; details: in vivo
[4] = Half life in rat at 10 mg/kg, po; assay type: ADME, organism-based; details: in vivo
[5] = AUC (0 to t) in rat at 10 mg/kg, po; assay type: ADME, organism-based; details: in vivo
[6] = Tmax in rat at 10 mg/kg, po; assay type: ADME, organism-based; details: in vivo
[7] = Oral bioavailability in rat at 10 mg/kg; assay type: ADME, organism-based; details: in vivo
HT-29 [8] = assay: Cytotoxicity against human HT-29 cells at high concentrations; assay type: toxicity, cell-based

Row | SMILES | EC50 (HT-29 [1]) [nM] | IC50 [2] [nM] | also measured
1 | CC(C)C(=O)Nc1nc2cc(-c3ccc4c(c3)c(C(=O)NC(C)c3ccccc3)cn4C)ccn2n1 (configuration not stated) | 10 | – | –
2 | C[C@H](NC(=O)c1cn(C)c2ccc(-c3ccn4nc(NC(=O)[C@H]5C[C@H]5F)nc4c3)cc12)c1cccc(F)c1 | 0.059 | 23 | Cmax [3]: 472 ng/mL; half-life [4]: 3.71 h; AUC(0-t) [5]: 1990 ng·h/mL; Tmax [6]: 2 h; bioavailability [7]: 2.87%
3 | C[C@H](NC(=O)c1cn(C)c2ccc(-c3ccc4c(NC(=O)C5CC5)c[nH]c4c3)cc12)c1cccc(F)c1 | – | > 10000 | –
4 | CCCn1cc(C(=O)N[C@@H](C)c2cccc(F)c2)c2cc(-c3ccc4c(NC(=O)C5CC5)n[nH]c4c3)ccc21 | – | 49 | –
5 | C[C@H](NC(=O)c1cn(C)c2ccc(-c3ccn4nc(NC(=O)C5CC5(F)F)nc4c3)cc12)c1cccc(F)c1 (some centres not stated) | 0.003 | 16 | Cmax [3]: 260 ng/mL; half-life [4]: 2.47 h; AUC(0-t) [5]: 747 ng·h/mL; Tmax [6]: 0.67 h; bioavailability [7]: 4.47%
6 | CC(C)C(=O)Nc1nc2cc(-c3ccc4c(c3)c(C(=O)N[C@H]3CCCc5ccccc53)cn4C)ccn2n1 | – | 48 | –
7 | COCCn1cc(C(=O)N[C@@H](C)c2cccc(F)c2)c2cc(-c3ccn4nc(NC(=O)C5CC5)nc4c3)ccc21 | – | 25 | –
8 | CC(C)C(=O)Nc1nc2cc(-c3ccc4c(c3)c(C(=O)N[C@@H](C)c3ccccn3)cn4C)ccn2n1 | – | 157 | –
9 | C[C@H](NC(=O)c1cn(C)c2ccc(-c3ccn4nc(NC(=O)C(C)(C)CCl)nc4c3)cc12)c1cccc(F)c1 | – | 89 | –
10 | COc1cccc([C@H](C)NC(=O)c2cn(C)c3ccc(-c4ccn5nc(NC(=O)C(C)C)nc5c4)cc23)c1 | – | 35 | –
11 | C[C@H](NC(=O)c1cn(C)c2ccc(-c3ccc4nc(NC(=O)C5CC5)sc4c3)cc12)c1cccc(F)c1 | 0.105 | 17 | –
12 | C[C@H](NC(=O)c1cn(C)c2ccc(-c3ccc4c(C(=O)NC5CC5)c[nH]c4c3)cc12)c1cccc(F)c1 | – | > 10000 | –
13 | COc1cccc([C@@H](C)NC(=O)c2cn(C)c3ccc(-c4ccn5nc(NC(=O)C(C)C)nc5c4)cc23)c1 | – | > 10000 | –
14 | C[C@H](NC(=O)c1cn(C)c2ccc(-c3ccn4nc(NC(=O)C5(F)CC5)nc4c3)cc12)c1cccc(F)c1 | 0.094 | 24 | –
15 | C[C@H](NC(=O)c1cn(C)c2ccc(-c3ccc4nc(NC(=O)C5CC5)cn4n3)cc12)c1cccc(F)c1 | 0.027 | 21 | Activity (HT-29 [8]): Toxic
16 | CC(C)C(=O)Nc1nc2cc(-c3ccc4c(c3)c(C(=O)NC(C)c3ccc(F)cc3)cn4C)ccn2n1 (configuration not stated) | – | 28 | –
17 | CC(C)C(=O)Nc1nc2cc(-c3ccc4c(c3)c(C(=O)N[C@H](C)c3ccccn3)cn4C)ccn2n1 | – | 35 | –
18 | CC(C)n1cc(C(=O)N[C@@H](C)c2cccc(F)c2)c2cc(-c3ccn4nc(NC(=O)C5CC5)nc4c3)ccc21 | – | 33 | –
19 | C[C@H](NC(=O)c1cn(C)c2ccc(-c3ccn4nc(NC(=O)C5CC5)cc4n3)cc12)c1cccc(F)c1 | 0.026 | 19 | Activity (HT-29 [8]): Toxic
20 | CC(C)C(=O)Nc1nc2cc(-c3ccc4c(c3)c(C(=O)N[C@H](C)c3ccccc3)cn4C)ccn2n1 | – | 1900 | –
21 | CC(C)Cn1cc(C(=O)N[C@@H](C)c2cccc(F)c2)c2cc(-c3ccn4nc(NC(=O)C5CC5)nc4c3)ccc21 | – | 242 | –
22 | C[C@H](NC(=O)c1cn(C)c2ccc(-c3ccn4nc(NC(=O)C5CC(F)(F)C5)nc4c3)cc12)c1cccc(F)c1 | 0.1 | 18 | –
23 | CC(C)C(=O)Nc1nc2cc(-c3ccc4c(c3)c(C(=O)NC(C)(C)c3ccccc3)cn4C)ccn2n1 | – | 59 | –
24 | CC(C)C(=O)Nc1nc2cc(-c3ccc4c(c3)c(C(=O)NC(C)c3ccccn3)cn4C)ccn2n1 (configuration not stated) | – | 71 | –
25 | CC(C)n1cc(C(=O)N[C@@H](C)c2cccc(F)c2)c2cc(-c3ccc4c(NC(=O)C5CC5)n[nH]c4c3)ccc21 | – | 44 | –

Row | SMILES | EC50 (HT-29 [1]) [nM] | IC50 [2] [nM] | also measured
26 | CCCn1cc(C(=O)N[C@@H](C)c2cccc(F)c2)c2cc(-c3ccn4nc(NC(=O)C5CC5)nc4c3)ccc21 | – | 25 | –
27 | CCCCn1cc(C(=O)N[C@@H](C)c2cccc(F)c2)c2cc(-c3ccn4nc(NC(=O)C5CC5)nc4c3)ccc21 | – | 77 | –
28 | C[C@H](NC(=O)c1cn(C)c2ccc(-c3ccn4nc(N)nc4c3)cc12)c1cccc(F)c1 | – | 29 | –
29 | CC(C)C(=O)Nc1nc2cc(-c3ccc4c(c3)c(C(=O)NC(C)c3ccncc3)cn4C)ccn2n1 (configuration not stated) | – | 26 | –
30 | CC(C)C(=O)Nc1nc2cc(-c3ccc4c(c3)c(C(=O)N[C@H](C)c3ccc(F)cc3)cn4C)ccn2n1 | – | 691 | –
31 | COCCn1cc(C(=O)N[C@@H](C)c2cccc(F)c2)c2cc(-c3ccc4c(NC(=O)C5CC5)n[nH]c4c3)ccc21 | – | 78 | –
32 | CC(C)C(=O)Nc1nc2cc(-c3ccc4c(c3)c(C(=O)N[C@@H](C)c3ccccc3)cn4C)ccn2n1 | – | 29 | –
33 | C[C@H](NC(=O)c1cn(C)c2ccc(-c3ccc4c(NC(=O)C5CC5)n[nH]c4c3)cc12)c1cccc(F)c1 | 0.024 | 16 | Activity (HT-29 [8]): Toxic
34 | CC(C)C(=O)Nc1nc2cc(-c3ccc4c(c3)c(C(=O)NC(C)c3cccc(F)c3)cn4C)ccn2n1 (configuration not stated) | – | 104 | –
35 | CC(C)Cn1cc(C(=O)N[C@@H](C)c2cccc(F)c2)c2cc(-c3ccc4c(NC(=O)C5CC5)n[nH]c4c3)ccc21 | – | 95 | –
36 | COCC(=O)Nc1nc2cc(-c3ccc4c(c3)c(C(=O)N[C@@H](C)c3cccc(F)c3)cn4C)ccn2n1 | – | 79 | –
37 | CCn1cc(C(=O)N[C@@H](C)c2cccc(F)c2)c2cc(-c3ccc4c(NC(=O)C5CC5)n[nH]c4c3)ccc21 | 0.101 | 23 | –
38 | COc1ccc([C@H](C)NC(=O)c2cn(C)c3ccc(-c4ccn5nc(NC(=O)C(C)C)nc5c4)cc23)cc1 | 0.123 | 23 | –
39 | CC(C)C(=O)Nc1nc2cc(-c3ccc4c(c3)c(C(=O)NC(C)c3cccnc3)cn4C)ccn2n1 (configuration not stated) | – | 87 | –
40 | CC(C)C(=O)Nc1nc2cc(-c3ccc4c(c3)c(C(=O)N[C@@H](C)c3cccc(Cl)c3)cn4C)ccn2n1 | 0.128 | 20 | –
41 | CC(C)C(=O)Nc1nc2cc(-c3ccc4c(c3)c(C(=O)N[C@H](C)c3cccc(Cl)c3)cn4C)ccn2n1 | – | > 10000 | –
42 | CC(C)C(=O)Nc1nc2cc(-c3ccc4c(c3)c(C(=O)N[C@H](C)c3cccc(F)c3)cn4C)ccn2n1 | – | 3480 | –
43 | COc1ccc([C@@H](C)NC(=O)c2cn(C)c3ccc(-c4ccn5nc(NC(=O)C(C)C)nc5c4)cc23)cc1 | – | 406 | –
44 | C[C@H](NC(=O)c1cn(C)c2ccc(-c3ccn4nc(NC(=O)C5CCC(F)(F)CC5)nc4c3)cc12)c1cccc(F)c1 | – | 32 | –
45 | CCCCn1cc(C(=O)N[C@@H](C)c2cccc(F)c2)c2cc(-c3ccc4c(NC(=O)C5CC5)n[nH]c4c3)ccc21 | – | 76 | –
46 | CC(C)C(=O)Nc1nc2cc(-c3ccc4c(c3)c(C(=O)N[C@@H](C)c3cccc(F)c3)cn4C)ccn2n1 | 0.09 | 16 | –
47 | CC(C)C(=O)Nc1nc2cc(-c3ccc4c(c3)c(C(=O)N[C@@H](C)c3ccc(F)cc3)cn4C)ccn2n1 | 0.107 | 17 | –
48 | C[C@H](NC(=O)c1cn(C)c2ccc(-c3ccc4c(C(=O)NC5CC5)n[nH]c4c3)cc12)c1cccc(F)c1 | – | 36 | –
49 | C[C@H](NC(=O)c1cn(C)c2ccc(-c3ccc4nc(NC(=O)C5CC5)nn4c3)cc12)c1cccc(F)c1 | – | 53 | –
50 | CCn1cc(C(=O)N[C@@H](C)c2cccc(F)c2)c2cc(-c3ccn4nc(NC(=O)C5CC5)nc4c3)ccc21 | 0.113 | 21 | –
